Tests used:
Format in all cases: in vivo
[1] = tested on: barnyardgrass (Echinochloa crus-galli, ECHCG); assay: Pre-emerge test, greenhouse herbicide activity screening; conditions: pre-emerge, 14 days after application, scale 0-100
Method in brief: (§1)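 Applied at 15–1000 g ai/ha from acetone in 187 l/ha spray volume. Post-emergence applications included 0.25% v/v non-ionic surfactant and reached plants sown 8–21 days before. Pre-emergence applications were incorporated by surface watering. Efficacy or crop damage was rated on a 0–100 scale after 14 days.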

[2] = tested on: velvetleaf (Abutilon theophrasti, ABUTH); assay: as above; conditions: pre-emerge, 14 days after application, scale 0-100
Method in brief: as §1

[3] = tested on: large crabgrass (Digitaria sanguinalis, DIGSA); assay: as above; conditions: pre-emerge, 14 days after application, scale 0-100
Method in brief: as §1

[4] = tested on: sicklepod (Cassia obtusifolia, CASOB); assay: as above; conditions: pre-emerge, 14 days after application, scale 0-100
Method in brief: as §1

[5] = tested on: green foxtail (Setaria viridis, SETVI); assay: as above; conditions: pre-emerge, 14 days after application, scale 0-100
Method in brief: as §1

[6] = tested on: ivyleaf morningglory (Ipomoea hederacea, IPOHE); assay: as above; conditions: pre-emerge, 14 days after application, scale 0-100
Method in brief: as §1

[7] = tested on: lambsquarters (Chenopodium album, CHEAL); assay: as above; conditions: pre-emerge, 14 days after application, scale 0-100
Method in brief: as §1

[8] = tested on: johnsongrass (Sorghum halepense, SORHA); assay: as above; conditions: pre-emerge, 14 days after application, scale 0-100
Method in brief: as §1

[9] = tested on: redroot pigweed (Amaranthus retroflexus, AMARE); assay: as above; conditions: pre-emerge, 14 days after application, scale 0-100
Method in brief: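 Visual ratings on a 0-100 scale (0 no damage, 100 all plants dead) were taken at 14 days after treatment. Rates of 15-1000 g ai/ha in acetone, 187 l/ha, were sprayed onto soil one day after planting (pre-emerge) or onto 2-3 leaf plants with 0.25% v/v surfactant (post-emerge).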

[10] = tested on: upland rice (Oryza sp., var. Tebonnet, RICE); assay: Post-emerge test, crop safety; conditions: post-emerge, 14 days after application, rating scale 0-100
Method in brief: as §1

[11] = tested on: field corn (Zea mays L., var. Dekalb 535, CORN); assay: Post-emerge test, crop safety; conditions: post-emerge, 14 days after application, rating scale 0-100
Method in brief: as §1

[12] = tested on: barnyardgrass (Echinochloa crus-galli, ECHCG); assay: Post-emerge test, greenhouse herbicide activity screening; conditions: post-emerge, 14 days after application, rating scale 0-100
Method in brief: (§2)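 Fourteen days after spraying, crop and weed injury was graded visually from 0, no effect, to 100, every plant dead. Test substances were dissolved in acetone and applied at 15–1000 g ai/ha with a flat-fan nozzle. Application was either pre-emergence, one day after sowing, or post-emergence at the 2–3 leaf stage.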

[13] = tested on: velvetleaf (Abutilon theophrasti, ABUTH); assay: as above; conditions: post-emerge, 14 days after application, rating scale 0-100
Method in brief: as §2

[14] = tested on: redroot pigweed (Amaranthus retroflexus, AMARE); assay: as above; conditions: post-emerge, 14 days after application, rating scale 0-100
Method in brief: as §2

[15] = tested on: large crabgrass (Digitaria sanguinalis, DIGSA); assay: as above; conditions: post-emerge, 14 days after application, rating scale 0-100
Method in brief: as §2

[16] = tested on: sicklepod (Cassia obtusifolia, CASOB); assay: as above; conditions: post-emerge, 14 days after application, rating scale 0-100
Method in brief: as §2

[17] = tested on: green foxtail (Setaria viridis, SETVI); assay: as above; conditions: post-emerge, 14 days after application, rating scale 0-100
Method in brief: as §2

[18] = tested on: ivyleaf morningglory (Ipomoea hederacea, IPOHE); assay: as above; conditions: post-emerge, 14 days after application, rating scale 0-100
Method in brief: as §2

[19] = tested on: lambsquarters (Chenopodium album, CHEAL); assay: as above; conditions: post-emerge, 14 days after application, rating scale 0-100
Method in brief: as §2

[20] = tested on: johnsongrass (Sorghum halepense, SORHA); assay: as above; conditions: post-emerge, 14 days after application, rating scale 0-100
Method in brief: as §2

[21] = tested on: upland rice (Oryza sp., var. Tebonnet, RICE); assay: Pre-emerge test, crop safety; conditions: pre-emerge, 14 days after application, scale 0-100
Method in brief: (§3)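 Sandy loam pots; pre-emerge: sown 1 d pre-spray, surface-watered after, then bottom-watered. Post-emerge: sown 8–21 d before, 2–3 leaf stage, + 0.25% v/v NIS, bottom-watered. Acetone, 187 l/ha track spray, 15–1000 g ai/ha. 0–100 injury score, day 14.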

[22] = tested on: field corn (Zea mays L., var. Dekalb 535, CORN); assay: Pre-emerge test, crop safety; conditions: pre-emerge, 14 days after application, scale 0-100
Method in brief: as §3

For `COc1c(Cl)cc(F)c(-n2c(=O)cc(C(F)(F)F)n(C)c2=O)c1NC(=O)CSc1ccc2ccccc2c1` [2-169], the “phytotoxicity rating ECHCG” value ([1]; 63 g ai/ha) was 0, the “phytotoxicity rating ECHCG” value ([1]; 250 g ai/ha) was 0 and the “phytotoxicity rating ABUTH” value ([2]; 63 g ai/ha) was 0. The “phytotoxicity rating ABUTH” value ([2]; 250 g ai/ha) was 90, the “phytotoxicity rating DIGSA” value ([3]; 63 g ai/ha) was 0 and the “phytotoxicity rating DIGSA” value ([3]; 250 g ai/ha) was 80. For the same molecule, the “phytotoxicity rating CASOB” value ([4]; 63 g ai/ha) was 20, the “phytotoxicity rating CASOB” value ([4]; 250 g ai/ha) was 30 and the “phytotoxicity rating SETVI” value ([5]; 63 g ai/ha) was 0. The “phytotoxicity rating SETVI” value ([5]; 250 g ai/ha) was 30, the “phytotoxicity rating IPOHE” value ([6]; 63 g ai/ha) was 10 and the “phytotoxicity rating IPOHE” value ([6]; 250 g ai/ha) was 20. The “phytotoxicity rating CHEAL” value ([7]; 63 g ai/ha) was 65, the “phytotoxicity rating CHEAL” value ([7]; 250 g ai/ha) was 100 and the “phytotoxicity rating SORHA” value ([8]; 63 g ai/ha) was 0. The “phytotoxicity rating SORHA” value ([8]; 250 g ai/ha) was 20, the “phytotoxicity rating AMARE” value ([9]; 63 g ai/ha) was 70 and the “phytotoxicity rating AMARE” value ([9]; 250 g ai/ha) was 80. For the same molecule, the “RICE phytotoxicity rating (crop damage)” value ([10]; 63 g ai/ha) was 10, the “RICE phytotoxicity rating (crop damage)” value ([10]; 250 g ai/ha) was 10 and the “CORN phytotoxicity rating (crop damage)” value ([11]; 63 g ai/ha) was 10. For the same molecule, the “CORN phytotoxicity rating (crop damage)” value ([11]; 250 g ai/ha) was 10, the ECHCG phytotoxicity rating ([12]; 63 g ai/ha) was 0 and the ECHCG phytotoxicity rating ([12]; 250 g ai/ha) was 0. For the same molecule, the ABUTH phytotoxicity rating ([13]; 63 g ai/ha) was 70, the ABUTH phytotoxicity rating ([13]; 250 g ai/ha) was 80 and the AMARE phytotoxicity rating ([14]; 63 g ai/ha) was 10. It also gave an AMARE phytotoxicity rating ([14]; 250 g ai/ha) of 0, a DIGSA phytotoxicity rating ([15]; 63 g ai/ha) of 0 and a DIGSA phytotoxicity rating ([15]; 250 g ai/ha) of 0. The CASOB phytotoxicity rating ([16]; 63 g ai/ha) was 10, the CASOB phytotoxicity rating ([16]; 250 g ai/ha) was 10 and the SETVI phytotoxicity rating ([17]; 63 g ai/ha) was 0. It also gave an SETVI phytotoxicity rating ([17]; 250 g ai/ha) of 0, an IPOHE phytotoxicity rating ([18]; 63 g ai/ha) of 50 and an IPOHE phytotoxicity rating ([18]; 250 g ai/ha) of 40. The CHEAL phytotoxicity rating ([19]; 63 g ai/ha) was 30, the CHEAL phytotoxicity rating ([19]; 250 g ai/ha) was 40 and the SORHA phytotoxicity rating ([20]; 63 g ai/ha) was 0. For the same molecule, the SORHA phytotoxicity rating ([20]; 250 g ai/ha) was 0, the “phytotoxicity rating RICE (crop damage)” value ([21]; 63 g ai/ha) was 10 and the “phytotoxicity rating RICE (crop damage)” value ([21]; 250 g ai/ha) was 40. The “phytotoxicity rating CORN (crop damage)” value ([22]; 63 g ai/ha) was 0 and the “phytotoxicity rating CORN (crop damage)” value ([22]; 250 g ai/ha) was 0.
